The text below walks through data of patent US10583129B2, “Use of EP4 receptor antagonists for the treatment of NASH-associated liver cancer” (AskAt Inc., priority 2016, dated 2020).

In data set [1] the test system is obesity-induced NASH-associated mouse liver cancer model. The data set is described as follows: DMBA plus high fat diet-induced NASH-associated mouse liver cancer model: tumor development and body weight. The format is in vivo. On the procedure: FIG. 1 depicts a mouse model timeline developed by treating with 7,12-dimethylbenz(a)anthracene (“DMBA”), and by feeding with a high fat diet (HFD). Compound A was administered to the mice every day from 19 weeks of age to 30 weeks of age and then euthanized (“Eut”).
FIG. 2 is macroscopic photographs of the liver isolated from the vehicle-treated mice (left side) and Compound A-treated mice (right side). […] Compound A or a vehicle (n=5, each) were treated to the mice every day from 19 weeks of age to 30 weeks of age. Arrowheads identify hepatocellular carcinomas (HCCs).
FIG. 3 depicts the average liver tumor numbers and the relative size distribution (classified as >6 mm, 2-6 mm, 2 mm). “NS” means not significant.
FIG. 4 depicts the average body weight of the vehicle-treated group and Compound A-treated group at the age of 30 weeks. Data are represented as means±SD.
C57/BL6 mice were purchased from CLEA Japan Inc. The TIr2^−/− mice (C57/BL6) were purchased from Oriental Yeast Co. Ltd.
Hematoxylin and eosin staining and immunofluorescence analysis were performed as previously described (Yoshimoto et al., Nature, 2013, 499:97-101).
P values less than 0.05 were considered significant. “NS” indicates not significant.
This mouse model was developed by treating with DMBA, 7,12-dimethylbenz(a)anthracene, and by feeding a high fat diet (HFD) (Ootani 2013). […] In this experiment, Compound A 30 mg/kg QD was administered to the mice every day from 19 weeks of age to 30 weeks of age (FIG. 1). As a control, a separate group of mice were treated only with a vehicle and no active ingredient.

In data set [2] the test system is immune cells obtained from mouse livers. To be noted: liver, 30 mg/kg QD, vs vehicle. On the procedure:
FIG. 5A depicts flow cytometry analysis of immune cells between vehicle-treated mice or Compound A-treated mice. The percentages of total CD11c^hi MHC class II (MHC II)^hi, CD11b^+ CD11c^hi MHC II^hi, or CD103^+ CD11c^hiMHC II^hi cells were analyzed by flow cytometry. Data are represented as means±SEM.
FIG. 6A depicts the percentages of CD3^+ CD4^+ Foxp3^+, CD3^+ CD4^+ Foxp3^−, CD3^+ CD8^+ cells analyzed by flow cytometry. The ratio of CD8^+ T cells to CD4^+ Foxp3^+ Tregs was calculated. Data are represented as means±SEM. NS=not significant, *p<0.05, **p<0.01.
In FIG. 7A, the percentages of CD69^+ CD8^+ cells were analyzed by flow cytometry (*p<0.05, **p<0.01).
In FIG. 8A, the percentages of PD-1^+ CD8^+ cells were analyzed by flow cytometry (*p<0.05, **p<0.01).
Immune cells were obtained from mouse livers and were subjected to measuring cytokine production and flow cytometric analysis.
Data were analyzed by unpaired t-test with Welch correction (two-side) or Man-Whitney test (two-side). P values less than 0.05 were considered significant. “NS” indicates not significant.
The impact of EP4 blockage on the prevalence and activation status of immune cells was assessed.

As for `C[C@H](NC(=O)c1cc(Cl)cnc1Oc1cccc(F)c1)c1ccc(C(=O)O)cc1` [Compound A, 4-[(1S)-1-({[5-chloro-2-(3-fluorophenoxy)pyridin-3-yl]carbonyl}amino)ethyl]-benzoic acid], the body weight result in data set [1] (30 mg/kg QD, at the age of 30 weeks, FIG. 4) is “did not influence body weight”. The “Hepatocellular carcinoma (HCC) development” value in data set [1] (Compound A 30 mg/kg QD from 19 to 30 weeks of age, compared to vehicle-treated mice) is listed as “strongly reduced”. In addition, the “Tumor colony sized more than 6 mm” value in data set [1] (after daily therapy from 19 to 30 weeks of age, FIG. 3) is listed as “completely disappeared”. In data set [1] (treated daily from 19 to 30 weeks of age, compared to vehicle-treated mice, FIG. 3), the “tumor number in the liver” value is recorded as “significantly inhibited”. In data set [2] (FIG. 5A/5B), the “frequency of CD11b+ DCs” value was “not changed”, the “frequency of CD11chi MHC class IIhi dendritic cells (DCs)” value is “not changed” and the “population of CD103+ DCs” value is “increased”. Further, in data set [2] (FIG. 6A), the “frequency of CD8+ T cells” value was “not changed” and the “ratio of CD8+ T cells to Tregs” value is “increased”. Also, in data set [2] (FIG. 6A/6B), the “frequency of CD4+Foxp3+ regulatory T cells (Tregs)” value is listed as “significantly reduced” and the “frequency of CD4+Foxp3- T cells” value is reported as “but not CD4^+Foxp3^− T cells, was significantly reduced”. The “number of CD8+ T cells expressing the activation marker CD69” value in data set [2] (FIG. 7A/7B) is listed as “significantly increased”. For the same compound, in data set [2] (FIG. 8A/8B), the “number of CD8+ T cells expressing programmed cell death-1 (PD-1)” value is given as “significantly reduced”.
